Laboratory results from paper PMC2362731, “Phase I study of Carzelesin (U-80,244) given (4-weekly) by intravenous bolus schedule” (British Journal of Cancer, 1999).

System: patients with advanced solid tumours
Experiment: Phase I toxicity of Carzelesin, 4-weekly 10 min IV infusion (NCI-CTC grading)
Assay type: in vivo, human
Procedure: Carzelesin is a cyclopropylpyrroloindole analogue which acts as a DNA-sequence-specific alkylating agent. In this phase I study, Carzelesin was given as a 4-weekly 10 min IV infusion to 51 patients with advanced solid tumours. Patients received a median of two courses (range 1–5) at one of nine dose levels: 24, 48, 96, 130, 150, 170, 210, 250 and 300 μg m^−2. According to NCI-CTC criteria, non-haematological toxicities (grade 1/2) included fever, nausea and vomiting, mucositis and anorexia, none of which was clearly dose related. The dose-limiting toxicity was haematological and consisted mainly of neutropenia and to a lesser extent thrombocytopenia. From the dose level 150 μg m^−2, the haematological toxicity (particularly thrombocytopenia) was delayed in onset, prolonged and cumulative in some patients. In several courses, double WBC nadirs occurred. The maximum tolerated dose for a single course was 300 μg m^−2. From the dose level 170 μg m^−2, the intended dose intensity could not be delivered to most patients receiving > 2 courses owing to cumulative haematological toxicity. The dose level with the best dose intensity for multiple courses was 150 μg m^−2. The pharmacokinetics of Carzelesin and its metabolites (U-76,073; U-76,074) have been established in 31 patients during the first course of treatment using a HPLC method. […] The concentration of U-76,074 (active metabolite) extended above the lower limit of quantitation (1 ng ml^−1) for short periods of time and only at the higher dose levels. There was no relationship between neutropenia and the AUC of the prodrug Carzelesin, but the presence of detectable plasma levels of the active metabolite U-76,074 was usually associated with a substantial decrease in ANC values. © 1999 Cancer Research Campaign
Carzelesin (U-80,244, Figure 1A) is a cyclopropylpyrroloindole (CPI) prodrug analogue of CC-1065. […] CPI drugs are a class of compounds with unique DNA interactive properties. These agents fit into the minor groove region of DNA, and the CPI function in the molecule mediates a covalent binding to the N3 position of adenine in A-T rich regions, thus forming DNA adducts in a sequence selective fashion (Hurley et al, 1984; Reynolds et al, 1985). Three new CPIs have now been developed. […] Bizelesin differs from the classical CPI drugs in that it contains two chloromethyl functions, which are both converted (via intramolecular rearrangements) to the CPI alkyl- ating species that interact with DNA. Consequently, this agent is capable of forming DNA interstrand cross-links (Lee et al, 1991). […] Therefore, efforts were directed to modu- late the alkylation rate by the preparation of CPI prodrugs that would require chemical or enzymatic conversion. The activation of Carzelesin is a two-step reaction with hydrolysis of the phenyl- urethane substituent to form the intermediate compound U-76,073, followed by ring closure to form the active product U-76,074 (Figure 1B). […] This higher efficacy may be related to the pharmacologic features of the compound. […] Phase I study of Carzelesin (U-80,244) given (4-weekly) by intravenous bolus schedule A Awada1, CJA Punt2, MJ Piccart1, O Van Tellingen3, L Van Manen2, J Kerger1, Y Groot4, J Wanders4, J Verweij5 and DJTh Wagener2 1Institut Jules Bordet, Bd de Waterloo 125, 1000 Brussels, Belgium; 2University Hospital, Geert Grooteplein 8, Box 9101, 6500 HB Nijmegen, The Netherlands; 3The Netherlands Cancer Institute (Antoni van Leeuwenhoek Huis), Plesmanlaan 121, 1066 CX Amsterdam, The Netherlands; 4European Organization for Research and Treatment of Cancer - New Drug Development Office, PO Box 7057, Amsterdam, The Netherlands; 5Rotterdam Cancer Institute, Groene Hilledijk 301, 3075 EA Rotterdam, The Netherlands; on behalf of the EORTC Early Clinical Studies Group and EORTC NDDO Summary Carzelesin is a cyclopropylpyrroloindole analogue which acts as a DNA-sequence-specific alkylating agent. […]

[1] = Table 4, dose levels 150-300 μg m-2 combined, 31 evaluable patients

Structure (SMILES): CCN(CC)c1ccc2cc(C(=O)Nc3ccc4[nH]c(C(=O)N5C[C@@H](CCl)c6c5cc(OC(=O)Nc5ccccc5)c5[nH]cc(C)c65)cc4c3)oc2c1 [Carzelesin]
- Thrombocytopenia grade 3/4, patients following the first course (Table 3, dose level 210 μg m-2, one patient had pre-existing grade 1 thrombocytopenia): 0/1
- Neutropenia grade 3/4, No. of courses (Table 3, dose level 250 μg m-2): 1/2
- Neutropenia grade 3/4, No. of patients (worst grade per patient) (Table 3, dose level 250 μg m-2): 0/2
- Neutropenia grade 3/4, patients following the first course (Table 3, dose level 250 μg m-2): 1/1
- No. of toxic patients following the first course (Table 3, dose level 250 μg m-2): 2
- Thrombocytopenia grade 3/4, No. of courses (Table 3, dose level 250 μg m-2): 1/1
- Thrombocytopenia grade 3/4, No. of patients (worst grade per patient) (Table 3, dose level 250 μg m-2): 1/1
- Thrombocytopenia grade 3/4, patients following the first course (Table 3, dose level 250 μg m-2): 1/0
- No. of toxic patients/courses (grade 3/4 neutropenia and/or thrombocytopenia) (Table 3, dose level 250 μg m-2, 5/7 evaluable patients/courses): 2/3
- Neutropenia grade 3/4, No. of courses (Table 3, dose level 300 μg m-2): 1/2
- Neutropenia grade 3/4, No. of patients (worst grade per patient) (Table 3, dose level 300 μg m-2): 1/2
- Neutropenia grade 3/4, patients following the first course (Table 3, dose level 300 μg m-2): 1/2
- No. of toxic patients following the first course (Table 3, dose level 300 μg m-2): 3
- Thrombocytopenia grade 3/4, No. of courses (Table 3, dose level 300 μg m-2): 1/1
- Thrombocytopenia grade 3/4, No. of patients (worst grade per patient) (Table 3, dose level 300 μg m-2): 1/1
- Thrombocytopenia grade 3/4, patients following the first course (Table 3, dose level 300 μg m-2): 1/1
- No. of toxic patients/courses (grade 3/4 neutropenia and/or thrombocytopenia) (Table 3, dose level 300 μg m-2, 4/4 evaluable patients/courses): 3/3
- Anorexia, patients with worst CTC-grade 1 [1]: 5
- Anorexia, patients with worst CTC-grade 2 [1]: 5
- Anorexia, patients with worst CTC-grade 3 [1]: 0
- Anorexia, patients with worst CTC-grade 4 [1]: 0
- Bilirubin toxicity, patients with worst CTC-grade 2 [1]: 6
- Bilirubin toxicity, patients with worst CTC-grade 3 [1]: 1
- Bilirubin toxicity, patients with worst CTC-grade 4 [1]: 0
- Creatinine toxicity, patients with worst CTC-grade 1 [1]: 6
- Creatinine toxicity, patients with worst CTC-grade 2 [1]: 1
- Creatinine toxicity, patients with worst CTC-grade 3 [1]: 0
- Creatinine toxicity, patients with worst CTC-grade 4 [1]: 0
- Diarrhoea, patients with worst CTC-grade 1 [1]: 5
- Diarrhoea, patients with worst CTC-grade 2 [1]: 1
- Diarrhoea, patients with worst CTC-grade 3 [1]: 0
- Fatigue/asthenia, patients with worst CTC-grade 1 [1]: 3
- Fatigue/asthenia, patients with worst CTC-grade 2 [1]: 9
- Fatigue/asthenia, patients with worst CTC-grade 3 [1]: 3
- Fatigue/asthenia, patients with worst CTC-grade 4 [1]: 0
- Fever, patients with worst CTC-grade 1 [1]: 4
- Fever, patients with worst CTC-grade 2 [1]: 5
- Fever, patients with worst CTC-grade 3 [1]: 2
- Fever, patients with worst CTC-grade 4 [1]: 0
- Mucositis, patients with worst CTC-grade 1 [1]: 7
- Mucositis, patients with worst CTC-grade 2 [1]: 1
- Mucositis, patients with worst CTC-grade 3 [1]: 0
- Mucositis, patients with worst CTC-grade 4 [1]: 0
- Nausea, patients with worst CTC-grade 1 [1]: 11
- Nausea, patients with worst CTC-grade 2 [1]: 6
- Nausea, patients with worst CTC-grade 3 [1]: 2
- Nausea, patients with worst CTC-grade 4 [1]: 0
- Pain at the infusion site, patients with worst CTC-grade 1 [1]: 9
- Pain at the infusion site, patients with worst CTC-grade 2 [1]: 2
- Pain at the infusion site, patients with worst CTC-grade 3 [1]: 0
- Pain at the infusion site, patients with worst CTC-grade 4 [1]: 0
- Proteinuria, patients with worst CTC-grade 1 [1]: 3
- Proteinuria, patients with worst CTC-grade 2 [1]: 0
- Proteinuria, patients with worst CTC-grade 3 [1]: 0
- Proteinuria, patients with worst CTC-grade 4 [1]: 0
- Vomiting, patients with worst CTC-grade 1 [1]: 7
- Vomiting, patients with worst CTC-grade 2 [1]: 5
- Vomiting, patients with worst CTC-grade 3 [1]: 2
- Vomiting, patients with worst CTC-grade 4 [1]: 0
- Diarrhoea, patients with worst CTC-grade 4 (Table 4, dose levels 150-300 μg m-2 combined, 31 evaluable patients, relation to Carzelesin was unlikely): 1
- patients who received red cell transfusions while on study (different dose levels from 130): Nine patients
- patients with grade 4 myelotoxicity (dose level 150, six evaluable patients): two patients out of six
- episode of febrile neutropenia (dose level 250): One patient
- patients with grade 4 neutropenia (dose level 300): two out of four
- patients with grade 4 myelotoxicity (dose levels 96 and 130): two patients
- grade 3 or 4 haematological toxicities (first two dose levels (24, 48)): no grade 3 or 4 haematological toxici- ties were observed
- second drop in leucocyte and neutrophil count after apparent recovery, evaluable courses (from the dose level of 130): 26%
- second drop in leucocyte and neutrophil count after apparent recovery, evaluable patients (from the dose level of 130): 33%
- non-haematological toxicities, overall (grade 1-2, none clearly dose related): infrequent and mild
- flush reaction, patients (in vivo): five patients
- haemorrhagic episodes during treatment (in vivo): No haemorrhagic episodes
- dose-limiting toxicity (mainly neutropenia, to a lesser extent thrombocytopenia): haematological
- median days to complete recovery, neutrophils (overall, median (range)): 28 (20-35) days
- median days to complete recovery, platelets (overall, median (range)): 33 (24-56) days
- median days to nadir, neutrophils (overall, median (range)): 12 (8-14) days
- median days to nadir, platelets (overall, median (range)): 20 (15-26) days
